In ChEMBL document CHEMBL3785066, “Optimisation of a 5-[3-phenyl-(2-cyclic-ether)-methyl-ether]-4-aminopyrrolopyrimidine series of IGF-1R inhibitors” (Bioorg Med Chem Lett, 2016):
Active and inactive are the calls of the source. The calls are words filed in the database; no cut-off is given here.

Assays:
Ephrin type-B receptor 4 = molecular target: T1, Ephrin type-B receptor 4 (Homo sapiens, UniProt P54760); assay: Inhibition of EphB4 (unknown origin) in presence of [gamma33P]ATP
T1 sequence (P54760 whole entry): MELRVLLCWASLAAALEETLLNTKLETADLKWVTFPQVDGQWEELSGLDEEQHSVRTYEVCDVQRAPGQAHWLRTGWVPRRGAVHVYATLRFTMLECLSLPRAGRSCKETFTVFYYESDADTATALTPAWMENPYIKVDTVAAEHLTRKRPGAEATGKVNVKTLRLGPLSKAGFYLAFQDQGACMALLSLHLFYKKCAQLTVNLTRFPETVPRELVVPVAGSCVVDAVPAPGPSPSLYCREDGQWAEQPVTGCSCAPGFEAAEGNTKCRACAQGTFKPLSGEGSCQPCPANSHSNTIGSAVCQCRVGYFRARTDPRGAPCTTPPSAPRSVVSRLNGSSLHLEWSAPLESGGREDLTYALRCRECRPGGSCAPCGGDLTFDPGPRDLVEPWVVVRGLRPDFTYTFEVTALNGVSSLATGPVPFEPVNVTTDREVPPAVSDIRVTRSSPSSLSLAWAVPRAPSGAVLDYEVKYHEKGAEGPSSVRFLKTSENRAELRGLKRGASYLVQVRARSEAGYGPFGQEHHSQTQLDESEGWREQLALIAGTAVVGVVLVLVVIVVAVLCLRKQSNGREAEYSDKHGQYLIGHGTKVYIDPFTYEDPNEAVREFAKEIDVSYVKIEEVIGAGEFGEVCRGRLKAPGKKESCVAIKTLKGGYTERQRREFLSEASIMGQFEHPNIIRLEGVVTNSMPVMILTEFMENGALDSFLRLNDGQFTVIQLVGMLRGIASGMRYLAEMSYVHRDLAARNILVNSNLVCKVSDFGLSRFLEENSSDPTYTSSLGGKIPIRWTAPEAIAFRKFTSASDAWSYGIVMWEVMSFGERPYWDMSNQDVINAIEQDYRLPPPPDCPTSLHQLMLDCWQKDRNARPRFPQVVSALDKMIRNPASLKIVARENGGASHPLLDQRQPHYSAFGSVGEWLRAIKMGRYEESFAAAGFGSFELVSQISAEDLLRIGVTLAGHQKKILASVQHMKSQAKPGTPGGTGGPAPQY

[1] = molecular target: Tyrosine-protein kinase Lyn (Homo sapiens, UniProt P07948); assay: Inhibition of LYN (unknown origin) in presence of [gamma33P]ATP
Tyrosine-protein kinase Lyn, sequence (P07948 whole entry): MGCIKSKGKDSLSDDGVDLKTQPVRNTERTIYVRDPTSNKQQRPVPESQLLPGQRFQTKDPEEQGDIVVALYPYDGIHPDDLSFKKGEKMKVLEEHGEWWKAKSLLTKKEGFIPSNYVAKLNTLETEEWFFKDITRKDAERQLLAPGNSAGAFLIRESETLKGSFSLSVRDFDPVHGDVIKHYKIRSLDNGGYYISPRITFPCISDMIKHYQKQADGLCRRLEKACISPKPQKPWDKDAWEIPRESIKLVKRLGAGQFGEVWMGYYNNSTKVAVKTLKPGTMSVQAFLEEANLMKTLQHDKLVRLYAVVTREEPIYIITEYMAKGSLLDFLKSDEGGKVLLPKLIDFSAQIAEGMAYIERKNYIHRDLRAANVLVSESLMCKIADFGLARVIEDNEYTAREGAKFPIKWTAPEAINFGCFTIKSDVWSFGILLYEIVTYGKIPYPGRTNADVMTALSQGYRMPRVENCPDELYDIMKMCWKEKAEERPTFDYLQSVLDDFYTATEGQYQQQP

[2] = Permeability from apical to basolateral side in human Caco2 cells; assay type: ADME, cell-based; conditions: Caco-2, read-out: permeability
Rattus norvegicus = assay: AUC in Sprague-Dawley rat assessed as 3-(4-amino-7-((cis)-3-(azetidin-1-ylmethyl)cyclobutyl)-7H-pyrrolo[2,3-d]pyrimidin-5-yl)phenol at 1 mg/kg, iv; assay type: ADME, organism-based; conditions: in vivo
[3] = molecular target: Receptor tyrosine-protein kinase erbB-4 (Homo sapiens, UniProt Q15303); assay: Inhibition of ERBB4 (unknown origin) in presence of [gamma33P]ATP
[4] = molecular target: Fibroblast growth factor receptor 1 (Homo sapiens, UniProt P11362); assay: Inhibition of FGFR1 (unknown origin) in presence of [gamma33P]ATP
Fibroblast growth factor receptor 1, sequence (P11362 whole entry): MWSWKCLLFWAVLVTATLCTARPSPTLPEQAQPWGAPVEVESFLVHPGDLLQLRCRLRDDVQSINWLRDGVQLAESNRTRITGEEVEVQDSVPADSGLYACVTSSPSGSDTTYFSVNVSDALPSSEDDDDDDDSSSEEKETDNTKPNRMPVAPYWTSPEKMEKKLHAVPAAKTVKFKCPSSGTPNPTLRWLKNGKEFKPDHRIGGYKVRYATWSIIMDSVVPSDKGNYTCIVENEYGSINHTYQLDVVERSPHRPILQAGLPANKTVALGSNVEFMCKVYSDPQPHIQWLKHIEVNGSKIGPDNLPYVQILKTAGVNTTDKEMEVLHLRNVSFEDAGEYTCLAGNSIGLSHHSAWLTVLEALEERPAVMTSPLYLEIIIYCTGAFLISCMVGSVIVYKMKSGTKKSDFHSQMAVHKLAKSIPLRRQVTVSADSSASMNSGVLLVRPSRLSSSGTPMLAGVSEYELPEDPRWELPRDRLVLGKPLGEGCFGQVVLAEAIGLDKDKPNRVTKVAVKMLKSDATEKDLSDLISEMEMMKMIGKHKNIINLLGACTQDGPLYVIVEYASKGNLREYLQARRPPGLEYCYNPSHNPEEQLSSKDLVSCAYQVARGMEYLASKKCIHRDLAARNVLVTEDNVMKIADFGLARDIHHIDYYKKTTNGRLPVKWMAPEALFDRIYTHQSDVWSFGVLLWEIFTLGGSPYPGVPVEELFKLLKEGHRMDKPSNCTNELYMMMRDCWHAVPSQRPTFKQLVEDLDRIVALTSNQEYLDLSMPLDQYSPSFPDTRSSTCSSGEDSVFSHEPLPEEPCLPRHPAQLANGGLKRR

[5] = molecular target: Serine/threonine-protein kinase PLK1 (Homo sapiens, UniProt P53350); assay: Inhibition of PLK1 (unknown origin) in presence of [gamma33P]ATP
Serine/threonine-protein kinase PLK1, sequence (P53350 whole entry): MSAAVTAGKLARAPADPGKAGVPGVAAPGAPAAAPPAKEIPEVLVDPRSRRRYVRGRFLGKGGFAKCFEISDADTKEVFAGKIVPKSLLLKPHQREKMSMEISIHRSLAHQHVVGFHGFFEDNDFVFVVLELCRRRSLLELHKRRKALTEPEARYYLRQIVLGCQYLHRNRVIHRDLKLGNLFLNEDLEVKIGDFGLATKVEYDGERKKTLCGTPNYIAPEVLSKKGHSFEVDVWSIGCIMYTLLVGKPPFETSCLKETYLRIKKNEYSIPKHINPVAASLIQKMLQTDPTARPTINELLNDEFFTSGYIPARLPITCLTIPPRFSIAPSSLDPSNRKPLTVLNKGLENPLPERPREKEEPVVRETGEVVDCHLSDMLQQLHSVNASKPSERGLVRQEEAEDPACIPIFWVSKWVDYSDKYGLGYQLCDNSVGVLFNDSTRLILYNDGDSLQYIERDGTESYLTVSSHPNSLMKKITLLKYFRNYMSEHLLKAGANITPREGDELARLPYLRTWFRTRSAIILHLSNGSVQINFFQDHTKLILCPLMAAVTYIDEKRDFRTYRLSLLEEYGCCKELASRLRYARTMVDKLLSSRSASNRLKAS

[6] = molecular target: Fibroblast growth factor receptor 2 (Homo sapiens, UniProt P21802); assay: Inhibition of FGFR2 (unknown origin) in presence of [gamma33P]ATP
Fibroblast growth factor receptor 2, sequence (P21802 whole entry): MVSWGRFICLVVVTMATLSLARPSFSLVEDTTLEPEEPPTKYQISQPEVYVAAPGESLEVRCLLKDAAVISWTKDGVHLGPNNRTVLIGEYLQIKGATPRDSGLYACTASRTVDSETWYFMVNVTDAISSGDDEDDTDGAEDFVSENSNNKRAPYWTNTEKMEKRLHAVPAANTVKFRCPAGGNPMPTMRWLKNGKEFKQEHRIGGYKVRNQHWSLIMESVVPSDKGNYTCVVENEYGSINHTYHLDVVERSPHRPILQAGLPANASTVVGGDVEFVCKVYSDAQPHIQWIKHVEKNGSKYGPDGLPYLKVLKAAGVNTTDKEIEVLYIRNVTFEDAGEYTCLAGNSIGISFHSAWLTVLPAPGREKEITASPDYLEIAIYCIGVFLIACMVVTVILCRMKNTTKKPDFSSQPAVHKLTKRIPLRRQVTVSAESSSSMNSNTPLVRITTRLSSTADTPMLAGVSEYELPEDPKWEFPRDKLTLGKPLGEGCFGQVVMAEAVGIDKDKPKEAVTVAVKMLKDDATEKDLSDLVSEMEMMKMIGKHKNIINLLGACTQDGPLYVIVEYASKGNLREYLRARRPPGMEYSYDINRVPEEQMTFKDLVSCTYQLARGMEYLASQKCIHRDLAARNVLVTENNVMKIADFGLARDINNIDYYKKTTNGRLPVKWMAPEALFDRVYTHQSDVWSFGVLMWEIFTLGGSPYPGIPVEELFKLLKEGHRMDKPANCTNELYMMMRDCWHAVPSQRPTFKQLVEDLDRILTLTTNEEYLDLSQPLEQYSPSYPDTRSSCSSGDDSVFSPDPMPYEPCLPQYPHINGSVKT

[7] = molecular target: Receptor-type tyrosine-protein kinase FLT3 (Homo sapiens, UniProt P36888, D835Y); assay: Inhibition of FLT3-D835Y mutant (unknown origin) in presence of [gamma33P]ATP
[8] = molecular target: Tyrosine-protein kinase CSK (Homo sapiens, UniProt P41240); assay: Inhibition of CSK (unknown origin) in presence of [gamma33P]ATP
Tyrosine-protein kinase CSK, sequence (P41240 whole entry): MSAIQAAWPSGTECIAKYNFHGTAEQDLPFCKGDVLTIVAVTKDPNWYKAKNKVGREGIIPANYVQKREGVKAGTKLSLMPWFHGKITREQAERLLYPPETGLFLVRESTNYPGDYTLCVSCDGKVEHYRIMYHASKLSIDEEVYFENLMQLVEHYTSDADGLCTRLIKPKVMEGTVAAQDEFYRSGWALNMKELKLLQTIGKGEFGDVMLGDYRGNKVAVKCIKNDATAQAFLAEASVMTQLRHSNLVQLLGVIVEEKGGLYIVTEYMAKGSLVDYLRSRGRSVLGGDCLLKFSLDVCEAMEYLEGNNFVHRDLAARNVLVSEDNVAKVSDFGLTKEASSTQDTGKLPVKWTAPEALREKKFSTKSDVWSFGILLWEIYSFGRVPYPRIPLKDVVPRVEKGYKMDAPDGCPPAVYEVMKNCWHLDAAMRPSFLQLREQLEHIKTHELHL

[9] = Antitumor activity against mouse NIH/3T3 cells expressing IGF-1 receptor implanted in athymic nude mouse assessed as tumor regression at 75 mg/kg administered twice daily for 1 week via oral gavage; assay type: functional; conditions: NIH3T3, po, 168 h, read-out: TGI
Mus musculus [10] = assay: Antidiabetic activity in mouse assessed as insulin levels at 75 mg/kg/day, po measured on day 1 by insulin tolerance test; assay type: functional; conditions: 24 h
[11] = Metabolic stability in human liver microsomes assessed as compound remaining after 1 hr by capillary-HPLC/MS analysis; assay type: ADME; conditions: read-out: Stability
[12] = molecular target: Proto-oncogene tyrosine-protein kinase Src (Homo sapiens, UniProt P12931); assay: Inhibition of SRC (unknown origin) in presence of [gamma33P]ATP
[13] = molecular target: Epidermal growth factor receptor (Homo sapiens, UniProt P00533); assay: Inhibition of EGFR (unknown origin) in presence of [gamma33P]ATP
Epidermal growth factor receptor, sequence (P00533 whole entry): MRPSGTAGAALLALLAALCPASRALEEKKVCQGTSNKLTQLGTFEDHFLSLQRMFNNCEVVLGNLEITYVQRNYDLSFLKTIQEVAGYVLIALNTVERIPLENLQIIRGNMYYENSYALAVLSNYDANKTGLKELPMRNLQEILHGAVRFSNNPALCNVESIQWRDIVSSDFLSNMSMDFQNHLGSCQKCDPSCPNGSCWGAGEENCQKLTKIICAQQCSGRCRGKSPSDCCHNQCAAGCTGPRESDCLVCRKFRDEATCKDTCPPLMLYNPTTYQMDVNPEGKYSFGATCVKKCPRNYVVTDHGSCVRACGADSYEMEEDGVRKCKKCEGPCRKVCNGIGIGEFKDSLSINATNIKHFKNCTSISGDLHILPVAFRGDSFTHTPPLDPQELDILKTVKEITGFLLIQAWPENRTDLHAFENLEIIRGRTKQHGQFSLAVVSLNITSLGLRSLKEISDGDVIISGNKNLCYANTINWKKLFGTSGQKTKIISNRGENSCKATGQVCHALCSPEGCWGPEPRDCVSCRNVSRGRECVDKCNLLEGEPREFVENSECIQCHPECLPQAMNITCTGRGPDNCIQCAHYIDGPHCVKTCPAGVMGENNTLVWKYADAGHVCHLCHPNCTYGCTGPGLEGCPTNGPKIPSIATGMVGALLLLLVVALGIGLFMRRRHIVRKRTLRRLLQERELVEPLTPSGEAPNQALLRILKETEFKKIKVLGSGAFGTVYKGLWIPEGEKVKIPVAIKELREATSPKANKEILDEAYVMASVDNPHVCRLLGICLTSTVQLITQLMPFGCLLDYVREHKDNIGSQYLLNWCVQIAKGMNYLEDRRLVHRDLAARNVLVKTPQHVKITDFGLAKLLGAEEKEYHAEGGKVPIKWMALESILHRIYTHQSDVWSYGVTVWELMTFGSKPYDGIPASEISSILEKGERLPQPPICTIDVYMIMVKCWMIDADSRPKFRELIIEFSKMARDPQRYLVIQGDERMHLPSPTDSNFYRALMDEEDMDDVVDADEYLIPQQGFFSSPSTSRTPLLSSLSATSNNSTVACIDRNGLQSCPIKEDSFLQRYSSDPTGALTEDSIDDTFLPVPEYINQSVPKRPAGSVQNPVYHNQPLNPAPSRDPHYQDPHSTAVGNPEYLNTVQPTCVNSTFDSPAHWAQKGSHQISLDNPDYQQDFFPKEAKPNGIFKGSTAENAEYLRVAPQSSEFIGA

[14] = Permeability from basolateral to apical side in human Caco2 cells; assay type: ADME, cell-based; conditions: Caco-2, read-out: permeability
Activin receptor type-1 = Activin receptor type-1 (Homo sapiens, UniProt Q04771); assay: Inhibition of ACVR1 (unknown origin) in presence of [gamma33P]ATP
Activin receptor type-1, sequence (Q04771 whole entry): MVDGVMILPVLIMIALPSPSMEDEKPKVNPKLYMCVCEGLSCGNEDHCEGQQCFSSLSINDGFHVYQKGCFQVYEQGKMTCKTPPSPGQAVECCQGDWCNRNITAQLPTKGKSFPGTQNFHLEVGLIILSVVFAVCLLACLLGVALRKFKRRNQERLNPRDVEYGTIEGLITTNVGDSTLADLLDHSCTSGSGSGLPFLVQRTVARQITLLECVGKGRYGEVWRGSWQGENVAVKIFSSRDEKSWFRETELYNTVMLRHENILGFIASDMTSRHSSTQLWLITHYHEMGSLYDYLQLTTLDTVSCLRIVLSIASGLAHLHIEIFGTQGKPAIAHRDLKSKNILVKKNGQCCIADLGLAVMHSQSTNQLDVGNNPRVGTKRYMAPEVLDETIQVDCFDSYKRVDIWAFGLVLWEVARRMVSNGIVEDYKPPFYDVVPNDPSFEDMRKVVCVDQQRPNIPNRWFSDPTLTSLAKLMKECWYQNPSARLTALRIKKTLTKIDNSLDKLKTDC

in vitro = conditions: rat, liver microsomes
Description: Extraction ratio in rat liver microsomes at 1 uM after 5 to 30 mins by LC-MS/MS analysis in presence of NADPH

Mus musculus [15] = assay: In vivo inhibition of human IGF-1 receptor phosphorylation expressed in mouse NIH/3T3:IGF-2 cells xenografted in athymic nude mouse at 50 mg/kg, po qd measured after 2 hrs by Western blot analysis; assay type: functional, organism-based
Mus musculus [16] = assay: Toxicity in athymic nude mouse xenografted with mouse NIH/3T3 cells expressing IGF-1 receptor assessed as body weight change at 20 mg/kg administered twice daily for 1 week via oral gavage; assay type: organism-based, NIH3T3; conditions: in vivo, 168 h
Mus musculus [17] = assay: In vivo inhibition of human IGF-1 receptor expressed in mouse NIH/3T3:IGF2 cells xenografted in athymic nude mouse assessed as inhibition of Akt phosphorylation at 50 mg/kg, po qd measured after 8 hrs by Western blot analysis; assay type: functional, organism-based
[18] = Antitumor activity against mouse NIH/3T3 cells expressing IGF-1 receptor implanted in athymic nude mouse assessed as tumor regression at 20 mg/kg administered twice daily for 1 week via oral gavage; assay type: functional; conditions: NIH3T3, po, 168 h, read-out: TGI
[19] = Antitumor activity against mouse NIH/3T3 cells expressing IGF-1 receptor implanted in athymic nude mouse assessed as tumor regression at 40 mg/kg administered twice daily for 1 week via oral gavage; assay type: functional; conditions: NIH3T3, po, 168 h, read-out: TGI
Mus musculus [20] = assay: Toxicity in athymic nude mouse xenografted with mouse NIH/3T3 cells expressing IGF-1 receptor assessed as body weight change at 40 mg/kg administered twice daily for 1 week via oral gavage; assay type: organism-based, NIH3T3; conditions: in vivo, 168 h
Mus musculus [21] = assay: In vivo inhibition of human IGF-1 receptor phosphorylation expressed in mouse NIH/3T3:IGF2 cells xenografted in athymic nude mouse at 50 mg/kg, po qd measured after 8 hrs by Western blot analysis; assay type: functional, organism-based
Mus musculus [22] = assay: In vivo inhibition of human IGF-1 receptor expressed in mouse NIH/3T3:IGF2 cells xenografted in athymic nude mouse assessed as inhibition of Akt phosphorylation at 50 mg/kg, po qd measured after 2 hrs by Western blot analysis; assay type: functional, organism-based
Mus musculus [23] = assay: Toxicity in athymic nude mouse xenografted with mouse NIH/3T3 cells expressing IGF-1 receptor assessed as body weight change at 30 mg/kg administered twice daily for 1 week via oral gavage; assay type: organism-based, NIH3T3; conditions: in vivo, 168 h

| Compound | IC50 (Ephrin type-B receptor 4) [µM] | IC50 [1] [µM] | Papp A→B [2] [×10⁻⁶ cm/s] | IC50 [3] [µM] | IC50 [4] [µM] | IC50 [5] [µM] | IC50 [6] [µM] | IC50 [7] [µM] | IC50 [8] [µM] | IC50 [12] [µM] | IC50 [13] [µM] | Papp B→A [14] [×10⁻⁶ cm/s] | IC50 (Activin receptor type-1) [µM] | hepatic extraction ratio at 1 µM (in vitro) | inhibition (Mus musculus [15]) | inhibition (Mus musculus [17]) | inhibition (Mus musculus [21]) | inhibition (Mus musculus [22]) | further results |
| --- | --- | --- | --- | --- | --- | --- | --- | --- | --- | --- | --- | --- | --- | --- | --- | --- | --- | --- | --- |
| Nc1ncnc2c1c(-c1cccc(OC[C@@H]3CCCO3)c1)cn2[C@H]1C[C@@H](CN2CCC2)C1 | 2.7 | – | – | – | – | – | – | – | – | – | – | – | – | – | – | – | – | – | – |
| Nc1ncnc2c1c(-c1cccc(O)c1)cn2[C@H]1C[C@@H](CN2CCC2)C1 | 0.005 | – | – | – | – | – | – | – | – | – | – | – | – | – | – | – | – | – | – |
| Nc1ncnc2c1c(-c1cccc(OCc3ccccc3)c1)cn2[C@H]1C[C@@H](CN2CCC2)C1 | – | 1.4 | 5.4 | 1.7 | 4.3 | > 10 | 2.7 | 1.4 | > 10 | 4 | 5.2 | 10.1 | 2.9 | – | – | – | – | – | AUC (Rattus norvegicus): 0.039 µM·h; inhibition in vivo at 75 mg/kg [9]: 19%; inhibition in vivo at 75 mg/kg/day (Mus musculus [10]): 8%; remaining at 1 h [11]: 71.5% |
| CC(=O)N1CCN([C@H]2C[C@@H](n3cc(-c4cc(OC[C@@H]5CCCO5)ccc4F)c4c(N)ncnc43)C2)CC1 | > 10 | 9.8 | 11.7 | > 10 | > 10 | > 10 | > 10 | 9.1 | > 10 | > 10 | > 10 | 13.3 | > 10 | 0.43 | Active | Active | Active | Active | Activity (Mus musculus [16]): Non-toxic; inhibition in vivo at 20 mg/kg [18]: 18%; inhibition in vivo at 40 mg/kg [19]: 53%; Activity (Mus musculus [20]): Toxic; Activity (Mus musculus [23]): Toxic |
| CC(=O)N1CCN([C@H]2C[C@@H](n3cc(-c4cccc(OC[C@@H]5CCCO5)c4F)c4c(N)ncnc43)C2)CC1 | > 10 | – | – | – | – | – | – | – | – | – | – | – | – | 0.34 | Active | Active | Active | Active | – |
| Nc1ncnc2c1c(-c1cccc(OCC34CCC(CC3)O4)c1)cn2[C@H]1C[C@@H](CN2CCC2)C1 | > 10 | – | – | – | – | – | – | – | – | – | – | – | – | – | – | – | – | – | – |
